According to patent publication US10081601B2, “Glucocerebrosidase modulators and uses thereof” (Alectos Therapeutics Inc., priority 2013, dated 2018):

Biological target: GCase enzyme (Cerezyme®, recombinant human GCase) (Homo sapiens, UniProt P04062, R534H)
Conditions: read-out: GCase Ki; from IC50 by Cheng-Prusoff equation, GCase Km 7.9 mM, pH 7.0
Method: Various concentrations of test compounds were prepared in DMSO and then diluted into buffer consisting of 50 mM sodium phosphate 0.25% w/v sodium taurodexoycholate, pH 7.0. […] The reaction solution consisted of 25 μL of 6 mM 4-methylumbelliferone-β-D glucopyranoside in 10% DMSO in the same buffer, 12.5 μL of enzyme and 12.5 μL of various concentrations of test compound diluted in buffer. […] The reaction was initiated by addition of enzyme and allowed to proceed for 20 min at 37° C. to assess GCase activity. […] IC50 values were determined by fitting the data to a log[inhibitor concentration] versus response curve using GraphPad Prism.

Sequence of GCase enzyme (Cerezyme®, recombinant human GCase) (P04062 40-536 R534H limits assumed): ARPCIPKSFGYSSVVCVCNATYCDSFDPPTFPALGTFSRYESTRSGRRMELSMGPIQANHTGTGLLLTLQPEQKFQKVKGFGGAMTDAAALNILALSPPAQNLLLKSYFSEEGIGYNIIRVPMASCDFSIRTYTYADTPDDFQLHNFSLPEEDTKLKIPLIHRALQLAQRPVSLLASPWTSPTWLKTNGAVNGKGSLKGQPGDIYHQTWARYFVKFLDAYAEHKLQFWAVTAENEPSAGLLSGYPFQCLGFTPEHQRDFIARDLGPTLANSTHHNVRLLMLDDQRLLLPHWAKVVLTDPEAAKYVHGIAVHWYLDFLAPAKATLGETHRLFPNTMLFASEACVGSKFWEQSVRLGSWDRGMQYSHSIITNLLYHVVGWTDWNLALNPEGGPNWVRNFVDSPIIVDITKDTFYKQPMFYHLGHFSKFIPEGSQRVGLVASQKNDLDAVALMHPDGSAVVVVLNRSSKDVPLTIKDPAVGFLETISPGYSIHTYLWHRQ

Row | Structure (SMILES) | Ki [nM]
1 | C[C@@H]1[C@@H](O)[C@H](O)CNC12CC2 [Example 1, (6R,7R,8S)-8-methyl-4-azaspiro[2.5]octane-6,7-diol] | 2.6
2 | O[C@H]1[C@H](O)CNC2(CC2)[C@@H]1C(F)F [Example 4, (6R,7R,8S)-8-(difluoromethyl)-4-azaspiro[2.5]octane-6,7-diol] | 8
